{
  "source": "patent US20260356860A1",
  "about": "“2-SUBSTITUTED 3,4A,5,7,8,8A-HEXAHYDRO-4H-THIOPYRANO[4,3-DJPYRIMIDIN-4-ONES FOR WOUND TREATMENT” (priority 2022, published 2026)",
  "key": {"[1]": {"system": "HEK293 SuperTOPFlash reporter cells, Wnt promoter", "assay": "HEK CELL Wnt Assay (luciferase reporter)", "assay_type": "cell-based", "conditions": "serial dilutions, with or without 50 ng/mL Wnt3a; 18 h", "in_short": "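Reporter cells were seeded 24 h before dosing with serial dilutions ([…] to 1 nM), with or without 50 ng/mL Wnt3a, and incubated 18 h. Untreated cells served as negative control, with luciferase as read-out.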"}, "[2]": {"system": "E. coli (derived from ATCC ® 25922 ™)", "assay": "Bacteriostasis, log reduction", "assay_type": "cell-based", "conditions": "E. coli ATCC 25922", "experimental": "(§1) In order to assess the log reduction capabilities of compounds of Formula (1), testing was performed on organisms that are found in acute and chronic wounds. Triplicate tubes were prepared for each bacteria using 50 μL of inoculum (about 1×10^6 CFU/mL) which was added to 450 μL of compound solution (compound of Formula (I)) (or 100 μL of inoculum in 900 μL of compound solution), resulting in a final inoculum of about 1×10^5 CFU/mL, as shown in Table 4.\n(§2) Tubes were mixed with a vortex and then incubated in a shaking incubator at 175 RPM and 35° C. to 37° C.\n(§3) Positive control in Tables 5a and 5b was 1 mL of 0.89% saline with 1 mL of the 1×10^6 CFU/mL of the organism.\n(§4) For Compounds 1, 7, 8, 10, and 18 in Tables 6, 7-A, 7-B, 8, 9, 10-A, 10-B, and 11: The compound solutions were prepared with compound (30 mg), polysorbate 20 (1.6 mL), butylene glycol (1.6 mL), phosphatidyl choline (0.66 g), ethanol (1.6 mL), hydroxypropyl cellulose (0.26 g), and ultra pure water (24.9 mL).\n(§5) XAV939 Control in Table X1 was XAV939 (30 mg), polysorbate 20 (1.6 mL), butylene glycol (1.6 mL), phosphatidyl choline (0.66 g), ethanol (1.6 mL), ultra pure water (24.9 mL), and hydroxypropyl cellulose (0.26 g).\n(§6) GO-HA Control in Table X2 was GO-HA (30 mg), polysorbate 20 (1.6 mL), butylene glycol (1.6 mL), phosphatidyl choline (0.66 g), ethanol (1.6 mL), ultra pure water (24.9 mL), and hydroxypropyl cellulose (0.26 g).\n(§7) For Compound 18+GO-HA in Tables 6 and X4: compound 18 (45 mg), GO-HA (45 mg), polysorbate 20 (2 mL), butylene glycol (2 mL), phosphotidyl choline (0.5 g), ethanol (2 mL), hydroxypropyl cellulose (0.40 g), and ultra pure water (40 mL).\n(§8) For XAV939+GO-HA in Tables 6 and X3-A, and X3-B: XAV939 (45 mg), GO-HA (45 mg), butylene glycol (2 mL), polysorbate 20 (2 mL), phosphotidyl choline (0.5 g), ethanol (2 mL), hydroxypropyl cellulose (0.40 g), and ultra pure water (40 mL).\n(§9) Testing was performed at two time points: 18 to 24 hours, and […]."}, "[3]": {"system": "E. coli (derived from ATCC ® 8739 ™)", "assay": "Bacteriostasis, log reduction", "assay_type": "cell-based", "conditions": "E. coli ATCC 8739", "experimental": "as §1, §2, §3, §4, §5, §6, §7, §8, §9"}, "[4]": {"system": "E. faecalis (derived from ATCC ® 19433 ™)", "assay": "Bacteriostasis, log reduction", "assay_type": "cell-based", "conditions": "E. faecalis ATCC 19433", "experimental": "as §1, §2, §3, §4, §5, §6, §7, §8, §9"}, "[5]": {"system": "P. aeruginosa (derived from ATCC ® 15442 ™)", "assay": "Bacteriostasis, log reduction", "assay_type": "cell-based", "conditions": "P. aeruginosa ATCC 15442", "experimental": "as §1, §2, §3, §4, §5, §6, §7, §8, §9"}, "[6]": {"system": "S. aureus (MRSA) (derived from ATCC ® 33593 ™)", "assay": "Bacteriostasis, log reduction", "assay_type": "cell-based", "conditions": "S. aureus (MRSA) ATCC 33593", "experimental": "as §1, §2, §3, §4, §5, §6, §7, §8, §9"}, "[7]": {"system": "S. aureus (derived from ATCC ® 6538 ™)", "assay": "Bacteriostasis, log reduction", "assay_type": "cell-based", "conditions": "S. aureus ATCC 6538", "experimental": "as §1, §2, §3, §4, §5, §6, §7, §8, §9"}, "[8]": {"system": "S. epidermidis (derived from ATCC ® 14990 ™)", "assay": "Bacteriostasis, log reduction", "assay_type": "cell-based", "conditions": "S. epidermidis ATCC 14990", "experimental": "as §1, §2, §3, §4, §5, §6, §7, §8, §9"}, "TK 1": {"system": "TK 1", "conditions": "cell-free assay; read-out: IC50, TK 1 inhibition; cited from earlier work"}, "TK2": {"system": "TK2", "conditions": "cell-free assay; read-out: IC50, TK2 inhibition; cited from earlier work"}, "CRE, F-κB, or TGF-β": {"system": "CRE, F-κB, or TGF-β", "conditions": "cited from earlier work"}, "[9]": {"conditions": "cited from earlier work"}, "ear punch wound": {"system": "ear punch wound", "conditions": "cited from earlier work"}, "wound": {"system": "wound", "conditions": "in a GO-HA matrix; cited from earlier work"}},
  "data": [
    {"smiles": "Oc1nc(-c2ccc(C(F)(F)F)cc2)nc2c1CSCC2", "note": "[XAV939, reference compound]", "values": [
      {"measurement": "IC50", "setting": "[1]", "result": 50, "unit": "nM"},
      {"measurement": "Average result", "setting": "[2]; 24 h", "result": "2.8 × 10^4"},
      {"measurement": "Log Reduction", "setting": "[2]; 24 h", "result": 1.0},
      {"measurement": "Log Value", "setting": "[2]; 24 h", "result": 4.4},
      {"measurement": "Average result", "setting": "[2]; 72 h", "result": "<200"},
      {"measurement": "Log Reduction", "setting": "[2]; 72 h", "result": ">3.1"},
      {"measurement": "Log Value", "setting": "[2]; 72 h", "result": "<2.3"},
      {"measurement": "Average result", "setting": "[3]; 24 h", "result": "2.7 × 10^3"},
      {"measurement": "Log Reduction", "setting": "[3]; 24 h", "result": 1.9},
      {"measurement": "Log Value", "setting": "[3]; 24 h", "result": 3.4},
      {"measurement": "Average result", "setting": "[3]; 72 h", "result": "<200"},
      {"measurement": "Log Reduction", "setting": "[3]; 72 h", "result": ">3.0"},
      {"measurement": "Log Value", "setting": "[3]; 72 h", "result": "<2.3"},
      {"measurement": "Average result", "setting": "[4]; 24 h", "result": "2.6 × 10^5"},
      {"measurement": "Log Reduction", "setting": "[4]; 24 h", "result": "No"},
      {"measurement": "Log Value", "setting": "[4]; 24 h", "result": 5.4},
      {"measurement": "Average result", "setting": "[4]; 72 h", "result": "1.7 × 10^5"},
      {"measurement": "Log Reduction", "setting": "[4]; 72 h", "result": "No"},
      {"measurement": "Log Value", "setting": "[4]; 72 h", "result": 5.1},
      {"measurement": "Average result", "setting": "[5]; 24 h", "result": "<200"},
      {"measurement": "Log Reduction", "setting": "[5]; 24 h", "result": ">3.1"},
      {"measurement": "Log Value", "setting": "[5]; 24 h", "result": "<2.3"},
      {"measurement": "Average result", "setting": "[5]; 72 h", "result": "<200"},
      {"measurement": "Log Reduction", "setting": "[5]; 72 h", "result": ">3.1"},
      {"measurement": "Log Value", "setting": "[5]; 72 h", "result": "<2.3"},
      {"measurement": "Average result", "setting": "[6]; 24 h", "result": "8.7 × 10^4"},
      {"measurement": "Log Reduction", "setting": "[6]; 24 h", "result": "No"},
      {"measurement": "Log Value", "setting": "[6]; 24 h", "result": 4.9},
      {"measurement": "Average result", "setting": "[6]; 72 h", "result": "<6.8 × 10^3"},
      {"measurement": "Log Reduction", "setting": "[6]; 72 h", "result": ">0.8"},
      {"measurement": "Log Value", "setting": "[6]; 72 h", "result": "<3.8"},
      {"measurement": "Average result", "setting": "[7]; 24 h", "result": "2.5 × 10^3"},
      {"measurement": "Log Reduction", "setting": "[7]; 24 h", "result": 1.9},
      {"measurement": "Log Value", "setting": "[7]; 24 h", "result": 3.4},
      {"measurement": "Average result", "setting": "[7]; 72 h", "result": "1.7 × 10^5"},
      {"measurement": "Log Reduction", "setting": "[7]; 72 h", "result": 0.1},
      {"measurement": "Log Value", "setting": "[7]; 72 h", "result": 5.2},
      {"measurement": "Average result", "setting": "[8]; 24 h", "result": "5.5 × 10^4"},
      {"measurement": "Log Reduction", "setting": "[8]; 24 h", "result": 0.1},
      {"measurement": "Log Value", "setting": "[8]; 24 h", "result": 4.7},
      {"measurement": "Average result", "setting": "[8]; 72 h", "result": "<200"},
      {"measurement": "Log Reduction", "setting": "[8]; 72 h", "result": ">2.5"},
      {"measurement": "Log Value", "setting": "[8]; 72 h", "result": "<2.3"},
      {"measurement": "IC50", "setting": "TK 1", "result": 11, "unit": "nM"},
      {"measurement": "IC50", "setting": "TK2", "result": 4, "unit": "nM"},
      {"measurement": "effect on CRE, F-κB, or TGF-β", "setting": "CRE, F-κB, or TGF-β", "result": "does not affect CRE, F-κB, or TGF-β"},
      {"measurement": "solubility in water-based solutions", "setting": "[9]", "result": "poor solubility in water-based solutions"},
      {"measurement": "aqueous solubility", "setting": "[9]; water", "result": "< 1", "unit": "µg/mL"},
      {"measurement": "cartilage regeneration and healing", "setting": "ear punch wound; 2 mm biopsy punch wound in cartilaginous region of C57B1/CJ mouse", "result": "increased cartilage regeneration and healing"},
      {"measurement": "wound closure rate and fibrosis", "setting": "ear punch wound; topical, mouse ear punch", "result": "significantly increased rate of wound closure with reduced fibrosis (scarring)"},
      {"measurement": "quality of wound healing", "setting": "wound", "result": "substantial improvement to the quality of wound healing"}
    ]}
  ]
}
